Source: US20220304979A1, “METHODS OF REDUCING DISEASE FLARES” (Chinook Therapeutics, Inc., priority 2019, published 2022)

Columns and labels:
[1] = tested on: primary human renal mesangial cells (HRMCs); test: proliferation (BrdU) of mesangial cells stimulated with IgA-containing immune complexes; type: cell-based; details: immune complexes purified from three patients with IgA nephropathy
Excerpt: Primary human mesangial cells in a culture were stimulated with pathogenic galactose deficient (Gd)-IgA containing immune complexes isolated from human IgA nephropathy patients. […] Specifically, pathogenic IgA-containing immune complexes were isolated from serum from either IgA nephropathy patients or age, gender and ethnicity-matched healthy individuals. Frozen serum was purchased from BioIVT and IgA-containing immune complexes were purified using jacalin affinity chromatography. […] Purified IgA-containing immune complexes were concentrated using a 100K Amicon filtration unit and the amount of total IgA and galactose-deficient IgA (Gd-IgA) in the immune complexes was measured by ELISA (ThermoFisher and IBL America, respectively). […] See, e.g., Novak et. al., Kidney International, 67, pp. 504-516; 2005; Novak et. al., Nephrol. Dial. Transplant, 26, pp. 3451-3457; 2011; Liang et. al., Cell Physiol. Biochem., 36, pp. 1793-1808; 2015; Nguyen et. al., Clin. Kidney 1, 12 (2), pp, 232-238; 2019.

[2] = tested on: g-ddY mice; test: albuminuria (UACR) in g-ddY mouse model of IgA nephropathy; type: in vivo; details: for albuminuria compared to baseline: approximately 5 days
Excerpt: The grouped ddY (g-ddY) mouse is a spontaneous model of early-onset IgA nephropathy characterized by IgA immune complex deposition in the mesangium of the kidney, leading to significant proteinuria, glomerular hypercellularity, mesangioproliferative glomerular lesions, glomerular sclerosis and reduced kidney function, all hallmarks of human IgA nephropathy (J Am Soc Nephrol 23: 1364-1374, 2012). Consistent with human IgA nephropathy, the mesangial IgA deposits in the g-ddY mouse are also accompanied by deposition of IgG and complement C3.

[3] = tested on: kidney tissue of g-ddY mice; test: RNA-seq differential gene expression in kidney tissue of g-ddY mice; type: in vivo, mouse
Experimental: RNA isolation and sequencing libraries were generated using standard protocols. Sequencing was performed using an Illumina NextSeq500 using manufacturer's instructions with a read length of 75 bp and a read depth of 30 million. Raw data was assembled to FASTQ files. Following QC analysis, high quality sequencing reads (e.g., reads with a Phred quality score >36) were aligned to the mouse reference genome (GRCm38-mm10) using the default parameters of the align algorithm and transcript count tables of each library was generated using the default parameters of the featureCounts algorithm of the RSubread package (Liao […], Shi W, 2019). High quality sequencing reads mapped to 27,129 genes. Following additional QC of low count filtering (i.e. transcripts <10 counts across all samples), 16,207 genes were identified and used for further analysis. The remaining sequencing read counts of the included 16,207 genes were normalized to library size, log-transformed, and were quantified as counts per million (CPM). Select RNA-seq counts were validated using qPCR. Sequencing read counts (CPM) were used for identification of differential gene expression between specified populations using the quasi-likelihood methodology of the edgeR package. […] MA plots were generated using edgeR. Heatmaps and other plots were generated using the gplots and ggplot2 package.

[4] = tested on: kidney tissue of g-ddY mice; test: Ingenuity Pathway Analysis (IPA) canonical pathways of kidney RNA-seq, g-ddY mice; type: in vivo, mouse; details: 30 mg/kg/day
[5] = patients with diabetic kidney disease (DKD); cited from earlier work
[6] = atrasentan 10 mg/kg/day vs 0 mg/kg/day (control), g-ddY mice
[7] = atrasentan 20 mg/kg/day vs 0 mg/kg/day (control), g-ddY mice
[8] = atrasentan 30 mg/kg/day vs 0 mg/kg/day (control), g-ddY mice

## CCCCN(CCCC)C(=O)CN1C[C@H](c2ccc3c(c2)OCO3)[C@@H](C(=O)O)[C@@H]1c1ccc(OC)cc1 [atrasentan, (2R,3R,4S)-4-(1,3-benzodioxol-5-yl)-1-[2-(dibutylamino)-2-oxoethyl]-2-(4-methoxyphenyl)pyrrolidine-3-carboxylic acid]
[1]
  hyperproliferation of HRMCs induced by IgA containing immune complexes: significantly attenuated the hyperproliferation
[2]; 10 mg/kg/day
  effect to reduce UACR from baseline compared to control group: not significant
[2]; 20 mg/kg/day, P=0.0498, un-paired t-test
  effect to reduce UACR from baseline compared to control group: statistically significant compared to the control group
[2]; 20 mg/kg/day, just failed statistical significance (P=0.0593)
  albuminuria compared to baseline: reduced from baseline to a similar extent
[2]; 30 mg/kg/day, P=0.029
  effect to reduce UACR from baseline compared to control group: statistically significant compared to the control group
[2]; 30 mg/kg/day, paired t-test
  albuminuria compared to baseline: significantly (P=0.0002, paired two-sided t-test) reduced albuminuria from baseline
[3]; 10 mg/kg/day
  ET1 gene signature genes downregulated versus untreated control: Grk5, Mllt3, Klf2, Pparg, Hgf, Edn1, Fos, Ptgs2, and IL-1b
  ET1 gene signature genes upregulated versus untreated control: Ccnd1, Ppara, Agt, Map2k2 and Hoxa9
[3]; 20 mg/kg/day
  ET1 gene signature genes downregulated versus untreated control: Nfatc1, Grk5, Klf2, Cav1, Pparg, Itga5, Myc, Ednra, Sell, Hgf, Mmp2, Edn1, Syk, Fos, and IL-1b
  ET1 gene signature genes upregulated versus untreated control: Ccdn1, Cat, Ppara, Map2k2, Hoxa9, Agt, and Egfr
[3]; 30 mg/kg/day
  ET1 gene signature genes downregulated versus untreated control: Ednrb, Myc, Mllt3, Hdac7, Ednra, Itga5, Grk5, Pparg, Klf2, Hgf, Mmp2, Sell, Sphk1, Fos, Syk, Edn1, and IL-1b
  ET1 gene signature genes upregulated versus untreated control: Ccnd1, Agt, Cat, Map2k2, Hoxa9, and Ppara
  gene expression of Ednra and Ednrb: downregulated
[3]; all three doses (10, 20, 30 mg/kg/day)
  gene expression of ET1 (End1): downregulated
[3]; [6]
  logFC Ahnak gene expression: −0.5756
  logFC Akap12 gene expression: −0.2687
  logFC Akt3 gene expression: −0.3863
  logFC Aldob gene expression: 0.4194
  logFC Ankrd12 gene expression: −0.2824
  logFC C7 gene expression: −0.7767
  logFC Caldl gene expression: −0.3719
  logFC Cblb gene expression: −0.082
  logFC Ebfl gene expression: −0.3301
  logFC Epb4112 gene expression: −0.4375
  logFC Etsl gene expression: −0.2198
  logFC Fchsd2 gene expression: −0.2564
  logFC Frmd4a gene expression: −0.2838
  logFC Gata3 gene expression: −0.4822
  logFC Gpx3 gene expression: 0.6802
  logFC Igfbp7 gene expression: 0.2052
  logFC Lama2 gene expression: −0.2955
  logFC Maml2 gene expression: −0.2318
  logFC Mef2c gene expression: −0.6217
  logFC Meisl gene expression: −0.2507
  logFC Myh9 gene expression: −0.2094
  logFC Myole gene expression: −0.2349
  logFC Nbea gene expression: −0.2819
  logFC Nr4a1 gene expression: −1.525
  logFC Piezo2 gene expression: −0.4078
  logFC Postn gene expression: −1.385
  logFC Pparg gene expression: −0.6129
  logFC Ppp1r12a gene expression: −0.1995
  logFC Prkgl gene expression: −0.2187
  logFC Psd3 gene expression: −0.3544
  logFC Ptprm gene expression: −0.2614
  logFC Rapgef5 gene expression: −0.2732
  logFC Raphl gene expression: −0.2965
  logFC Rbms3 gene expression: −0.5749
  logFC Robol gene expression: −0.4803
  logFC Stard13 gene expression: −0.7224
  logFC Tacc1 gene expression: −0.2449
  logFC Tcf4 gene expression: −0.2176
  logFC Tjpl gene expression: −0.2489
  logFC Tns3 gene expression: −0.2638
  logFC Unc5c gene expression: 0.5618
  logFC Utrn gene expression: −0.49
  logFC Zeb2 gene expression: −0.5638
[3]; [7]
  logFC Ahnak gene expression: −0.7128
  logFC Akap12 gene expression: −0.5404
  logFC Akt3 gene expression: −0.4673
  logFC Aldob gene expression: 0.4923
  logFC Ankrd12 gene expression: −0.2463
  logFC C7 gene expression: −1.277
  logFC Caldl gene expression: −0.5361
  logFC Cblb gene expression: −0.2068
  logFC Ebfl gene expression: −0.3512
  logFC Epb4112 gene expression: −0.6149
  logFC Etsl gene expression: −0.3065
  logFC Fchsd2 gene expression: −0.1882
  logFC Frmd4a gene expression: −0.3955
  logFC Gata3 gene expression: −0.4924
  logFC Gpx3 gene expression: 0.71
  logFC Igfbp7 gene expression: 0.1088
  logFC Lama2 gene expression: −0.4437
  logFC Maml2 gene expression: −0.2311
  logFC Mef2c gene expression: −0.6302
  logFC Meisl gene expression: −0.3593
  logFC Myh9 gene expression: −0.4543
  logFC Myole gene expression: −0.292
  logFC Nbea gene expression: −0.1933
  logFC Piezo2 gene expression: −0.6148
  logFC Postn gene expression: −2.293
  logFC Pparg gene expression: −0.5616
  logFC Ppp1r12a gene expression: −0.2135
  logFC Prkgl gene expression: −0.328
  logFC Psd3 gene expression: −0.5227
  logFC Ptprm gene expression: −0.2678
  logFC Rapgef5 gene expression: -0.3804
  logFC Raphl gene expression: −0.3852
  logFC Rbms3 gene expression: −0.7192
  logFC Robol gene expression: −0.7261
  logFC Stard13 gene expression: −0.6367
  logFC Tacc1 gene expression: −0.3693
  logFC Tcf4 gene expression: −0.224
  logFC Tjpl gene expression: −0.3054
  logFC Tns3 gene expression: −0.3043
  logFC Unc5c gene expression: 0.3685
  logFC Utrn gene expression: −0.5143
  logFC Zeb2 gene expression: −0.6492
[3]; [8]
  logFC Ahnak gene expression: −1.013
  logFC Akap12 gene expression: −0.8211
  logFC Akt3 gene expression: −0.4843
  logFC Aldob gene expression: 0.748
  logFC Ankrd12 gene expression: −0.4726
  logFC C7 gene expression: −1.079
  logFC Caldl gene expression: −0.506
  logFC Cblb gene expression: −0.4288
  logFC Ebfl gene expression: −0.4506
  logFC Epb4112 gene expression: −0.7021
  logFC Etsl gene expression: −0.3379
  logFC Fchsd2 gene expression: −0.3772
  logFC Frmd4a gene expression: −0.5742
  logFC Gata3 gene expression: −0.5216
  logFC Gpx3 gene expression: 1.122
  logFC Igfbp7 gene expression: 0.4259
  logFC Lama2 gene expression: −0.4895
  logFC Maml2 gene expression: −0.4441
  logFC Mef2c gene expression: −0.6869
  logFC Meisl gene expression: −0.4934
  logFC Myh9 gene expression: −0.6171
  logFC Myole gene expression: −0.4177
  logFC Nbea gene expression: −0.432
  logFC Piezo2 gene expression: −0.8237
  logFC Postn gene expression: −1.247
  logFC Pparg gene expression: −0.6781
  logFC Ppp1r12a gene expression: −0.3826
  logFC Prkgl gene expression: −0.6356
  logFC Psd3 gene expression: −0.5843
  logFC Ptprm gene expression: −0.5453
  logFC Rapgef5 gene expression: −0.4225
  logFC Raphl gene expression: −0.5358
  logFC Rbms3 gene expression: −0.8895
  logFC Robol gene expression: −0.6009
  logFC Stard13 gene expression: −0.8466
  logFC Tacc1 gene expression: −0.4924
  logFC Tcf4 gene expression: −0.3055
  logFC Tjpl gene expression: −0.3989
  logFC Tns3 gene expression: −0.4522
  logFC Unc5c gene expression: 0.9517
  logFC Utrn gene expression: −0.7697
  logFC Zeb2 gene expression: −0.6778
[4]
  signaling pathways by IPA analysis: reduced NF-κB signaling, IL-6 pathway signaling (e.g., STAT3), and PDGF signaling
[5]
  risk of renal events (doubling of serum creatinine or end-stage kidney disease): significantly reducing the risk of renal events
